Measured values published in BigSolDB 2.1.

CCN(CC)C(=S)SSC(=S)N(CC)CC
solubility (mole fraction)
Conditions | in THF | in acetonitrile | in dichloromethane | in ethanol | in ethyl acetate | in isobutanol | in isopropanol | in methanol | in n-butanol | in n-propanol
273.15 K | 0.0618 | 0.0134 | 0.11 | 0.000903 | 0.00709 | 0.00101 | 0.000564 | 0.000896 | 0.00109 | 0.00101
278.15 K | 0.0719 | 0.0174 | 0.118 | 0.00111 | 0.0101 | 0.00119 | 0.000733 | 0.00105 | 0.00155 | 0.00127
283.15 K | 0.0825 | 0.024 | 0.13 | 0.00143 | 0.0143 | 0.00146 | 0.000981 | 0.00134 | 0.00216 | 0.00167
288.15 K | 0.0942 | 0.0313 | 0.143 | 0.00192 | 0.0201 | 0.00198 | 0.00133 | 0.00172 | 0.0028 | 0.00229
293.15 K | 0.111 | 0.041 | 0.159 | 0.00266 | 0.0275 | 0.00263 | 0.0018 | 0.00235 | 0.00375 | 0.00301
298.15 K | 0.131 | 0.0558 | 0.175 | 0.00339 | 0.0405 | 0.0035 | 0.0026 | 0.00323 | 0.00518 | 0.00423
303.15 K | 0.152 | 0.0793 | 0.202 | 0.00466 | 0.0571 | 0.0052 | 0.00346 | 0.0042 | 0.00715 | 0.00571
308.15 K | 0.173 | 0.108 | 0.229 | 0.0063 | 0.0809 | 0.00779 | 0.0047 | 0.00541 | 0.0104 | 0.00797
313.15 K | 0.198 | 0.141 | 0.263 | 0.00911 | 0.107 | 0.011 | 0.00651 | 0.00736 | 0.0151 | 0.0106
318.15 K | 0.228 | 0.184 | – | 0.0131 | 0.143 | 0.0152 | 0.00964 | 0.0106 | 0.0208 | 0.0155
